Source: paper PMC9007940, “Oscillatory calcium release and sustained store-operated oscillatory calcium signaling prevents differentiation of human oligodendrocyte progenitor cells” (Scientific Reports, 2022)
pEC50: −log10 of the molar value.

Key:
[1] = target: T1, metabotropic type 5 glutamate receptor (mGluR5) (Homo sapiens, UniProt P41594); test: GCaMP6s calcium imaging dose-response (AUC) in primary human OPCs, endogenous receptor; assay type: cell-based
T1 construct: gene GRM5

[2] = system: T2, muscarinic acetylcholine receptor M3 (M1/3R); test: GCaMP6s calcium imaging dose-response (AUC) in primary human OPCs, endogenous M1/M3 receptors; assay type: cell-based
T2 construct: gene CHRM3

T1 sequence (P41594 21-1212): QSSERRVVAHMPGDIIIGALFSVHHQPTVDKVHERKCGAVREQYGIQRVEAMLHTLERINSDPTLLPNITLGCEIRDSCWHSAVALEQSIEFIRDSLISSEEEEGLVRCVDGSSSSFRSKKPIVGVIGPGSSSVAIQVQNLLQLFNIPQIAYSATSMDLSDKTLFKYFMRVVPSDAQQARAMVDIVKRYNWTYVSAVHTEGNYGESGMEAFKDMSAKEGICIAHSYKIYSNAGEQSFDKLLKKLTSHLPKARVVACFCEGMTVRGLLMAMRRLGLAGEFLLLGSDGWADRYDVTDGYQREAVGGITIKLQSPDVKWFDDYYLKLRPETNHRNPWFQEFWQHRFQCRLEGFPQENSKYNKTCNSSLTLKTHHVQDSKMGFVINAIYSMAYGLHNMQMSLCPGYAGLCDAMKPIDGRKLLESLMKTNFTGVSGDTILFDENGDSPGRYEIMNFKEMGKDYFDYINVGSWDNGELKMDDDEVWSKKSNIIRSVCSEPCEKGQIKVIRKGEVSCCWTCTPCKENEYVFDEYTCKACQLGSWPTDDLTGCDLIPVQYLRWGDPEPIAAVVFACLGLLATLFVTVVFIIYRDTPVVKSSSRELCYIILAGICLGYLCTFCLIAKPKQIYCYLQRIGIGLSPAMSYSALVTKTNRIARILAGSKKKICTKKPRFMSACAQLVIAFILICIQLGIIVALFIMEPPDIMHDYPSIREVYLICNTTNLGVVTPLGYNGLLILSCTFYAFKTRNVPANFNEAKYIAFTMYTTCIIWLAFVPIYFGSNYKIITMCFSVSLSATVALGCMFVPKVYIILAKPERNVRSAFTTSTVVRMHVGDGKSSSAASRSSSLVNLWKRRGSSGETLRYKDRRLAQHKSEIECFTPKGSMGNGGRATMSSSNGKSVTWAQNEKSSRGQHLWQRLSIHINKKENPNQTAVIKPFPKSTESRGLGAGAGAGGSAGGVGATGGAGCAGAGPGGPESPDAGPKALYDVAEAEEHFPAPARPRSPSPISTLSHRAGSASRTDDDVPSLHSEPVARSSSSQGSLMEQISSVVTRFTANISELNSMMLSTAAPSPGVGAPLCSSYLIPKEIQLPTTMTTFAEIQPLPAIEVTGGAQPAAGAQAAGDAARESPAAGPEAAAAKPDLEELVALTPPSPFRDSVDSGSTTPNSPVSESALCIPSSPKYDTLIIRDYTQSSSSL

Work on NC(C(=O)O)c1cc(O)ccc1Cl (centres unmarked) [CHPG] yielded a pEC50 [1] of 2.89.

C[N+](C)(C)CC#CCN1CCCC1=O [Oxo-M] showed a pEC50 [2] of 5.66.
